Test results: patent publication US7563787B2, “Substituted pyrazole compounds” (Miikana Therapeutics, Inc., priority 2005, dated 2009)

How the values were obtained:
[1] = target: T1, recombinant Aurora A (Homo sapiens, UniProt O14965); assay: Aurora A (Aurora 2) Inhibition Assay (Z'-Lyte); assay type: biochemical; conditions: 100 μM compound; ATP 10 μM; 1 h
T1 construct: purchased Upstate, Lake Placid, N.Y
T1 sequence (O14965 1-403): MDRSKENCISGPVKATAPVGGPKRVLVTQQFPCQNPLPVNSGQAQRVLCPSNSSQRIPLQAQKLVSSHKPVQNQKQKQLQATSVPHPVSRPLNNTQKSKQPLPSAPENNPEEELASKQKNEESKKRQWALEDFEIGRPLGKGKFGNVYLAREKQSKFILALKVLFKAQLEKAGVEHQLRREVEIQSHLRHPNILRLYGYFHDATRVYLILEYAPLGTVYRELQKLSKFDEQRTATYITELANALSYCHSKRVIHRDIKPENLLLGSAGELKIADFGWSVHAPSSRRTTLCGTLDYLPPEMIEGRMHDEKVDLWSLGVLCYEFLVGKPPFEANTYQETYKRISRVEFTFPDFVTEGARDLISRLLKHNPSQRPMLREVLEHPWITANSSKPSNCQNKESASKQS
Description: Compounds were tested for their potency against recombinant Aurora A (Upstate, Lake Placid, N.Y.) using the PanVera Z'-Lyte kinase assay kit-Ser/[…] peptide (Invitrogen, Carlsbad, Calif.). […] Assays were carried out in half-area 96-well white polystyrene assay plates (Corning, Corning, N.Y.) in a final volume of 20 μl. The reaction was allowed to proceed for 1 h at room temperature in the dark, at which point the development reagent and stop reagent were added according to the manufacturer's instructions. Coumarin (Ex. 400 nm, Em. 465 nm) and fluorescein (Ex. 400 nm, Em. 565 nm) fluorescence values were measured on a SpectraFluor Plus plate reader (Tecan, Durham, N.C.). The emission ratio (coumarin/fluorescein) was determined and used to calculate the percent phosphorylation for each well. […] Typically 20-40% of the substrate was phosphorylated in wells without inhibitor. Dose-response curves of relative Aurora A activity vs. inhibitor concentration were plotted with Grafit (Erithacus Software, Horley, Surrey, UK).

[2] = target: T2, Aurora B kinase (Homo sapiens, UniProt Q96GD4); assay: Aurora B (Aurora 1) Inhibition Assay; assay type: biochemical; conditions: 100 μM compound; ATP 50 μM; 16 h
T2 construct: purchased BPS Biosciences, San Diego, Calif
Description: Assays for Aurora B kinase inhibition were carried out similarly to those for Aurora A kinase (see above) with the following modifications. Aurora B kinase (BPS Biosciences, San Diego, Calif.) was used as the enzyme, at a concentration was 2.5 μg/mL. The ATP concentration was 50 μM, and the kinase reaction was allowed to proceed for 16 h. Sodium orthovanadate (20 μM) was added to the buffer to inhibit contaminating phosphatases.

[3] = test system: HCT-116 cell growth; assay: Whole Cell Cytotoxicity Assay: Sulforhodamine B; assay type: cell-based, Human; conditions: Homo sapiens, HCT-116; 100 μM compound; 96 hours; SRB staining
Description: Human tumor-derived cell lines, HCT116 or MCF7 (ATCC) were plated in a 96 well plate in DMEM containing 10% fetal bovine serum and 2 mM L-glutamine at a density of 500 HCT116 cells or 1,000 MCF7 cells per well and incubated at 37° C., 5% CO2, for 24 hours prior to the addition of experimental compounds. Compounds were added using the dilution series indicated to duplicate plates and the cells were incubated in media plus compound for 96 hours. An additional plate was fixed in 10% TCA at the time of the addition of compound to provide a measurement of the cell population at time zero, the time of drug addition. Following the 96 hour incubation, cells were fixed in situ by gently aspirating off the culture media and then adding 50 ul of ice cold 10% TCA per well and incubation at 4° C. for 60 minutes. The plates were washed with tap water five times and allowed to air dry for 5 minute. 50 ul of a 0.4% (w/v) Sulforhodamine B solution in 1% (v/v) acetic acid was added per well and the cells were incubated for 30 minutes at room temperature. Following staining, plates were washed four times with 1% acetic acid to remove any unbound dye and then allowed to air dry for 5 minutes. The stain was solubilized with 100 ul of 10 mM Tris pH 10.5 per well and placed on an orbital rotator for 5 minutes. The absorbance was read at 570 nm. Percentage growth was calculated using the absorbance readings from the time zero plate (Tz) and the dilution series plate […] which included a column of cells grown in media without compound as a control (C) using the formulas: [(Ti−Tz)/(C−Tz)]×100 for concentrations for which Ti>/=Tz [(Ti−Tz)/Tz]×100 for concentrations for which Ti<Tz.
Three dose response parameters were calculated for each experimental agent. Growth inhibition of 50% (GI50) was calculated from [(Ti−Tz)/(C−Tz)]×100=50, which was the drug concentration resulting in a 50% reduction in the net protein increase (as measured by SRB staining) in control cells during the drug incubation. The drug concentration resulting in total growth inhibition (TGI) was calculated from Ti=Tz. The LC50 (concentration of drug resulting in a 50% reduction in the measured protein at the end of the drug treatment as compared to that at the beginning) indicating a net loss of cells following treatment was calculated from [(Ti−Tz)/Tz]×100=−50. Values are calculated for each of these three parameters if the level of activity was reached; however, if the effect was not reached or was exceeded, the value for that parameter is expressed as greater or less than the maximum or minimum concentration tested.

T2 sequence (Q96GD4 whole entry): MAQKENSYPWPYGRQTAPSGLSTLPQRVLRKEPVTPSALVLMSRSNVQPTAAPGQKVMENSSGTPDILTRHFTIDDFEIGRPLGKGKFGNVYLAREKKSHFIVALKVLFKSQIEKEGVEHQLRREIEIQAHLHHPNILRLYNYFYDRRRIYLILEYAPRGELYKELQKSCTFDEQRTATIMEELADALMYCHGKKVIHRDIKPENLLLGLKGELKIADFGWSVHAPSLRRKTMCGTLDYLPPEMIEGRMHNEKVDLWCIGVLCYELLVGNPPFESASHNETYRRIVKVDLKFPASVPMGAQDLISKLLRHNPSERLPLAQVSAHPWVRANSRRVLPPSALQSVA

SMILES | inhibition at 100 µM [1] [%] | inhibition at 100 µM [2] [%] | inhibition at 100 µM [3] [%]
Cc1cc(Nc2cc(N3CCN(C)CC3)nc(/C=C/c3ccco3)n2)n[nH]1 [Example 60, 2-((E)-2-(furan-2-yl)vinyl)-N-(5-methyl-1H-pyrazol-3-yl)-6-(4-methylpiperazin-1-yl)pyrimidin-4-amine] | 100 | 99 | 98
CCOC(=O)c1nc(/C=C/c2ccccc2)nc(Nc2cc(C)n[nH]2)c1N [Example 18, ethyl 5-amino-6-[(3-methyl-1H-pyrazol-5-yl)amino]-2-[(E)-2-phenylvinyl]pyrimidine-4-carboxylate] | 100 | 100 | 80
Cc1cc(Nc2cc(N3CCN(C)CC3)nc(C#Cc3ccccc3)n2)n[nH]1 [Example 30, 6-(4-methylpiperazin-1-yl)-N-(3-methyl-1H-pyrazol-5-yl)-2-(phenylethynyl)pyrimidin-4-amine] | 100 | 97 | 99
COC(=O)c1cc(Nc2cc(C)n[nH]2)nc(/C=C/c2ccccc2)n1 [Example 26, methyl 6-[(3-methyl-1H-pyrazol-5-yl)amino]-2-[(E)-2-phenylvinyl]pyrimidine-4-carboxylate] | 99 | 95 | 98

Second part, led by results:

inhibition at 100 µM [1] [%] | inhibition at 100 µM [2] [%] | SMILES | inhibition at 100 µM [3] [%]
100 | 100 | Cc1cc(Nc2cc(OC3CCNCC3)nc(/C=C/c3ccccc3)n2)n[nH]1 [Example 100] | 96
100 | 100 | COCCNc1cc(Nc2cc(C)[nH]n2)nc(/C=C/c2ccccc2)n1 [Example 163, N^4-(2-methoxyethyl)-N^6-(5methyl-1H-pyrazol-3-yl)-2-styrylpyrimidine-4,6-diamine] | 98
100 | 99 | Cc1cc(Nc2cc(N3CCN(C)CC3)nc(/C=C\c3ccccc3)n2)n[nH]1 [Example 32, 6-(4-methylpiperazin-1-yl)-N-(3-methyl-1H-pyrazol-5-yl)-2-[(Z)-2-phenylvinyl]pyrimidin-4-amine] | 87
100 | 100 | Cc1cc(Nc2cc(NCC3CCCO3)nc(/C=C/c3ccccc3)n2)n[nH]1 (stereo not drawn) [Example 164, N^4-((tetrahydrofuran-2-yl)methyl)-N^6-(5-methyl-1H-pyrazol-3-yl)-2-styrylpyrimidine-4,6-diamine] | 96
